Source: PubChem BioAssay (NCI)
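Dose response: 5 concentrations. Exposure: 48 h. Format: 96-well plates. Endpoint: linear interpolation; highest concentration if not reached. At the TGI there is no net growth.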

Legend:
Test in all cases: inhibition of tumour cell growth, NCI panel, 48 h
RPMI-8226 leukemia = tested on: RPMI-8226 leukemia
CCRF-CEM leukemia = tested on: CCRF-CEM leukemia
K-562 leukemia = tested on: K-562 leukemia
RXF 393 renal = tested on: RXF 393 renal
NCI/ADR-RES ovarian = tested on: NCI/ADR-RES ovarian
NCI-H23 lung = tested on: NCI-H23 lung
DU-145 prostate = tested on: DU-145 prostate
OVCAR-3 ovarian = tested on: OVCAR-3 ovarian
T-47D breast = tested on: T-47D breast
UO-31 renal = tested on: UO-31 renal
MALME-3M melanoma = tested on: MALME-3M melanoma
SK-MEL-5 melanoma = tested on: SK-MEL-5 melanoma
SNB-75 CNS = tested on: SNB-75 CNS
SR leukemia = tested on: SR leukemia
BT-549 breast = tested on: BT-549 breast
SNB-19 CNS = tested on: SNB-19 CNS
CAKI-1 renal = tested on: CAKI-1 renal
HS 578T breast = tested on: HS 578T breast
HCC-2998 colon = tested on: HCC-2998 colon
COLO 205 colon = tested on: COLO 205 colon
HCT-15 colon = tested on: HCT-15 colon
UACC-62 melanoma = tested on: UACC-62 melanoma
OVCAR-4 ovarian = tested on: OVCAR-4 ovarian
SF-295 CNS = tested on: SF-295 CNS
HT29 colon = tested on: HT29 colon
HOP-62 NSCLC = tested on: HOP-62 NSCLC
SK-MEL-2 melanoma = tested on: SK-MEL-2 melanoma
NCI-H226 lung = tested on: NCI-H226 lung
A498 renal = tested on: A498 renal
MCF7 breast = tested on: MCF7 breast
SN12C renal = tested on: SN12C renal
NCI-H522 lung = tested on: NCI-H522 lung
SK-MEL-28 melanoma = tested on: SK-MEL-28 melanoma
IGROV1 ovarian = tested on: IGROV1 ovarian
OVCAR-5 ovarian = tested on: OVCAR-5 ovarian
U251 CNS = tested on: U251 CNS
OVCAR-8 ovarian = tested on: OVCAR-8 ovarian
HL-60(TB) leukemia = tested on: HL-60(TB) leukemia
M14 melanoma = tested on: M14 melanoma
MDA-MB-231 breast = tested on: MDA-MB-231 breast
MOLT-4 leukemia = tested on: MOLT-4 leukemia
SK-OV-3 ovarian = tested on: SK-OV-3 ovarian
NCI-H460 lung = tested on: NCI-H460 lung
MDA-N = tested on: MDA-N
PC-3 prostate = tested on: PC-3 prostate
HOP-92 NSCLC = tested on: HOP-92 NSCLC
KM12 colon = tested on: KM12 colon
UACC-257 melanoma = tested on: UACC-257 melanoma
ACHN renal = tested on: ACHN renal
SW-620 colon = tested on: SW-620 colon
HCT-116 colon = tested on: HCT-116 colon
A549 NSCLC = tested on: A549 NSCLC
TK-10 renal = tested on: TK-10 renal
MDA-MB-435 = tested on: MDA-MB-435
LOX IMVI melanoma = tested on: LOX IMVI melanoma
SF-539 CNS = tested on: SF-539 CNS
SF-268 CNS = tested on: SF-268 CNS
786-0 renal = tested on: 786-0 renal
EKVX NSCLC = tested on: EKVX NSCLC

With `O=C1C[C@H](c2ccccc2)C2(C(=O)c3ccccc3C2=O)[C@@H](c2ccccc2)C1` the TGI (RPMI-8226 leukemia) was > 100 µM, the TGI (CCRF-CEM leukemia) was > 100 µM and the TGI (K-562 leukemia) was > 100 µM. The TGI (RXF 393 renal) was > 100 µM, the TGI (NCI/ADR-RES ovarian) was > 100 µM and the TGI (NCI-H23 lung) was > 100 µM. The TGI (DU-145 prostate) was > 100 µM, the TGI (OVCAR-3 ovarian) was > 100 µM and the TGI (T-47D breast) was > 100 µM. The TGI (UO-31 renal) was > 100 µM, the TGI (MALME-3M melanoma) was > 100 µM and the TGI (SK-MEL-5 melanoma) was 31 µM. The TGI (SNB-75 CNS) was > 100 µM, the TGI (SR leukemia) was > 100 µM and the TGI (BT-549 breast) was 71.9 µM. For the same compound, the TGI (SNB-19 CNS) was > 100 µM, the TGI (CAKI-1 renal) was > 100 µM and the TGI (HS 578T breast) was > 100 µM. The TGI (HCC-2998 colon) was > 100 µM, the TGI (COLO 205 colon) was 53.6 µM and the TGI (HCT-15 colon) was > 100 µM. For the same compound, the TGI (UACC-62 melanoma) was 26.7 µM, the TGI (OVCAR-4 ovarian) was > 100 µM and the TGI (SF-295 CNS) was > 100 µM. The TGI (HT29 colon) was > 100 µM, the TGI (HOP-62 NSCLC) was > 100 µM and the TGI (SK-MEL-2 melanoma) was 69.3 µM. For the same compound, the TGI (NCI-H226 lung) was 69.1 µM, the TGI (A498 renal) was > 100 µM and the TGI (MCF7 breast) was 83 µM. For the same compound, the TGI (SN12C renal) was > 100 µM, the TGI (NCI-H522 lung) was > 100 µM and the TGI (SK-MEL-28 melanoma) was > 100 µM. For the same compound, the TGI (IGROV1 ovarian) was > 100 µM, the TGI (OVCAR-5 ovarian) was > 100 µM and the TGI (U251 CNS) was > 100 µM. For the same compound, the TGI (OVCAR-8 ovarian) was > 100 µM, the TGI (HL-60(TB) leukemia) was > 100 µM and the TGI (M14 melanoma) was 95.9 µM. The TGI (MDA-MB-231 breast) was > 100 µM, the TGI (MOLT-4 leukemia) was > 100 µM and the TGI (SK-OV-3 ovarian) was > 100 µM. For the same compound, the TGI (NCI-H460 lung) was > 100 µM, the TGI (MDA-N) was 81 µM and the TGI (PC-3 prostate) was > 100 µM. The TGI (HOP-92 NSCLC) was 90.9 µM.

For `CC1OC(OC2C(OC3C[C@@]4(C)C(C[C@H](O)[C@H]5[C@H](C6(C)CCC(C(C)(C)O)O6)CCC54C)[C@]4(C)CC[C@@H](O)C(C)(C)C34)OC(CO)C(O)C2O)C(O)C(O)C1O` (stereo partly drawn) (tested in a mixture with another compound), the TGI (RPMI-8226 leukemia) was > 100 µM, the TGI (CCRF-CEM leukemia) was > 100 µM and the TGI (K-562 leukemia) was > 100 µM. For the same compound, the TGI (RXF 393 renal) was > 100 µM, the TGI (KM12 colon) was > 100 µM and the TGI (NCI-H23 lung) was > 100 µM. The TGI (DU-145 prostate) was > 100 µM, the TGI (OVCAR-3 ovarian) was > 100 µM and the TGI (UACC-257 melanoma) was > 100 µM. For the same compound, the TGI (T-47D breast) was > 100 µM, the TGI (UO-31 renal) was > 100 µM and the TGI (SK-MEL-5 melanoma) was > 100 µM. The TGI (SNB-75 CNS) was > 100 µM, the TGI (SR leukemia) was > 100 µM and the TGI (BT-549 breast) was > 100 µM. The TGI (SNB-19 CNS) was > 100 µM, the TGI (CAKI-1 renal) was > 100 µM and the TGI (HS 578T breast) was > 100 µM. The TGI (HCC-2998 colon) was > 100 µM, the TGI (ACHN renal) was > 100 µM and the TGI (COLO 205 colon) was > 100 µM. The TGI (HCT-15 colon) was > 100 µM, the TGI (SW-620 colon) was > 100 µM and the TGI (HCT-116 colon) was > 100 µM. For the same compound, the TGI (UACC-62 melanoma) was > 100 µM, the TGI (A549 NSCLC) was > 100 µM and the TGI (OVCAR-4 ovarian) was > 100 µM. For the same compound, the TGI (TK-10 renal) was > 100 µM, the TGI (SF-295 CNS) was > 100 µM and the TGI (HT29 colon) was > 100 µM. The TGI (MDA-MB-435) was > 100 µM, the TGI (LOX IMVI melanoma) was > 100 µM and the TGI (HOP-62 NSCLC) was > 100 µM. For the same compound, the TGI (SK-MEL-2 melanoma) was > 100 µM, the TGI (NCI-H226 lung) was > 100 µM and the TGI (A498 renal) was > 100 µM. The TGI (SF-539 CNS) was > 100 µM, the TGI (MCF7 breast) was > 100 µM and the TGI (SF-268 CNS) was > 100 µM. For the same compound, the TGI (SN12C renal) was > 100 µM, the TGI (NCI-H522 lung) was > 100 µM and the TGI (SK-MEL-28 melanoma) was > 100 µM. The TGI (IGROV1 ovarian) was > 100 µM, the TGI (OVCAR-5 ovarian) was > 100 µM and the TGI (U251 CNS) was > 100 µM. The TGI (OVCAR-8 ovarian) was > 100 µM, the TGI (HL-60(TB) leukemia) was > 100 µM and the TGI (M14 melanoma) was > 100 µM. The TGI (MDA-MB-231 breast) was > 100 µM, the TGI (MOLT-4 leukemia) was > 100 µM and the TGI (786-0 renal) was > 100 µM. The TGI (SK-OV-3 ovarian) was > 100 µM, the TGI (NCI-H460 lung) was > 100 µM and the TGI (EKVX NSCLC) was > 100 µM. The TGI (MDA-N) was > 100 µM, the TGI (PC-3 prostate) was > 100 µM and the TGI (HOP-92 NSCLC) was > 100 µM.
